The nature of one data set: Solubility in water. Type of data set: physicochemical. Conditions: 25° C. As for the experimental part:
(§1) Ceritinib is a difficult compound to formulate. […] In addition, physical characteristics of Ceritinib cause sticking and picking during tableting or encapsulation of the drug and make it poorly compressible. Furthermore, the drug is administered at a high dose of 750 mg, which would require a patient to take daily up to 5 units of 150 mg. If the dose is to be increased in a respective dosage form, the increase in drug load generally negatively affects the compressibility of a tablet. Ceritinib's sticky nature causes a high drug load to further negatively influence the manufacturing of tablets due to enhanced sticking/picking.

Data set [1] is described as follows: Permeability / Biopharmaceutics Classification System. Type of data set: in vitro ADME. The protocol: as §1

We go through one molecule from US12357630B2, “Ceritinib formulation” (Novartis AG, priority 2014, dated 2025).

In brackets after ≈: the same amount, converted by molar mass.

On to `Cc1cc(Nc2ncc(Cl)c(Nc3ccccc3S(=O)(=O)C(C)C)n2)c(OC(C)C)cc1C1CCNCC1` [Ceritinib, 5-chloro-N^2-(2-isopropoxy-5-methyl-4-(piperidin-4-yl)phenyl)-N^4-[2-(propane-2-sulfonyl)-phenyl]-pyrimidine-2,4-diamine], for which, in “Solubility in water”, the concentration in solution (solubility) came to 20 µg/mL (≈ 35.8 µM). Moreover, in data set [1], the permeability entry is listed as “low permeability”.

Usually solubility stands for the dissolved amount per volume that the medium holds.
